{"source": "patent US11376253B2", "about": "“Agent for treating nocturnal pollakiuria” (KYORIN PHARMACEUTICAL CO., LTD., priority 2017, dated 2022)", "key": {"[1]": {"test_system": "Japanese OAB patients", "assay": "twelve-week randomized, double-blind, placebo-controlled, parallel-group study of nocturnal pollakiuria in OAB patients", "type": "in vivo, human", "conditions": "for Difference in amount of change (vibegron group − placebo group), least squares mean (95% confidence interval) / Amount of change from baseline in the frequency of urination at night, least squares mean (95% confidence interval): 12 weeks", "description": "The efficacy of vibegron on nocturnal pollakiuria in OAB patients was evaluated in a twelve-week randomized, double-blind, placebo-controlled, parallel-group study.\nJapanese OAB patients received either vibegron (50 mg/day or 100 mg/day) or a placebo for 12 weeks. Both 50 mg/day of vibegron and 100 mg/day of vibegron were orally administered in the form of a tablet once daily after breakfast. […] There was no difference among the dose groups in terms of subject background such as gender, age, and BMI.\nThe therapeutic effect of vibegron on nocturnal pollakiuria in OAB patients was evaluated based on an average frequency of urination at night, which was determined by using a urination diary to investigate the frequency of urination for three days prior to visits. In this context, nighttime is defined as the period of time between when one goes to bed to sleep and when one wakes up and gets out of bed. Constrained longitudinal data analysis model (cLDA) was used for statistical analysis to estimate the least squares mean and the two-sided 95% confidence interval of each group. Furthermore, the cLDA method was used to estimate the least squares mean difference at evaluation times between the 50 mg or 100 mg vibegron groups and the placebo group and the two-sided 95% confidence intervals thereof, thereby testing the least squares mean difference compared with placebo.\nNumerical values in Table 2 represent the average of the frequency of urination at night at baseline (before drug administration), the least squares mean of the amount of change from baseline in the average frequency of urination at night after 12 weeks of administration, the least squares mean of difference in the amount of change between the vibegron groups and the placebo group, and p-values. In this regard, when the amount of change is less than 0, the smaller value represents a greater therapeutic effect. […] “Patients whose frequency of urination at night is not zero at baseline” are represented as a main subject population, and other “patients whose frequency of urination at night is one or more times at baseline” and “patients whose frequency of urination at night is two or more times at baseline” are represented as populations who have more prominent symptoms of nocturnal pollakiuria. FIG. 1 is a graph in which the numerical values represent the least squares mean (ΔLSmean) of the amount of change from baseline in the frequency of urination at night after 12 weeks of administration."}, "[2]": {"test_system": "Japanese OAB patients", "assay": "twelve-week randomized, double-blind, placebo-controlled, parallel-group study of nocturnal pollakiuria in OAB patients", "type": "in vivo, human", "conditions": "for Least squares mean of the amount of change from baseline in the first voided volume at night / Least squares mean of the amount of change from baseline in the time to first awakening (HUS) / Least squares mean of the amount of change from baseline in the single voided volume at night: patients with frequency of urination at night one or more times per day at baseline; for Least squares mean of the amount of change from baseline in the first voided volume at night: placebo 24.80 mL; for Least squares mean of the amount of change from baseline in the time to first awakening (HUS): placebo 65.08 minutes; for Least squares mean of the amount of change from baseline in the single voided volume at night: placebo +19.42 mL"}, "[3]": {"conditions": "50 mg and 100 mg groups, patients with nocturnal pollakiuria with nocturnal polyuria, one or more times per day at baseline"}, "[4]": {"conditions": "50 mg/day oral, patients whose frequency of urination at night is two or more times at baseline"}, "[5]": {"conditions": "100 mg/day oral, patients whose frequency of urination at night is not zero at baseline"}, "[6]": {"conditions": "50 mg and 100 mg groups, patients with nocturnal pollakiuria without nocturnal polyuria, one or more times per day at baseline"}}}
{"smiles": "O=C(Nc1ccc(C[C@@H]2CC[C@H]([C@H](O)c3ccccc3)N2)cc1)[C@@H]1CCc2nccc(=O)n21", "note": "[Vibegron, (6S)—N-[4-({(2S,5R)-5-[(R)-hydroxy(phenyl)methyl]pyrrolidin-2-yl}methyl)phenyl]-4-oxo-4,6,7,8-tetrahydropyrrolo[1,2-a]pyrimidine-6-carboxamide]", "values": [{"measurement": "Frequency of urination at night compared with the placebo group", "setting": "[1]; [3]", "result": "reduced in the 50 mg vibegron group and the 100 mg vibegron group compared with the placebo group but the difference was not significant"}, {"measurement": "Difference in amount of change (vibegron group − placebo group), least squares mean (95% confidence interval)", "setting": "[1]; 50 mg/day oral, patients whose frequency of urination at night is not zero at baseline", "result": "−0.11 (−0.21, −0.02)"}, {"measurement": "Difference in amount of change (vibegron group − placebo group), least squares mean (95% confidence interval)", "setting": "[1]; 50 mg/day oral, patients whose frequency of urination at night is one or more times at baseline", "result": "−0.16 (−0.28, −0.04)"}, {"measurement": "Amount of change from baseline in the frequency of urination at night, least squares mean (95% confidence interval)", "setting": "[1]; [4]", "result": "−1.00 (−1.17, −0.83)"}, {"measurement": "Difference in amount of change (vibegron group − placebo group), least squares mean (95% confidence interval)", "setting": "[1]; [4]", "result": "−0.15 (−0.38, 0.08)"}, {"measurement": "Amount of change from baseline in the frequency of urination at night, least squares mean (95% confidence interval)", "setting": "[1]; [5]", "result": "−0.62 (−0.70, −0.55)"}, {"measurement": "Difference in amount of change (vibegron group − placebo group), least squares mean (95% confidence interval)", "setting": "[1]; [5]", "result": "−0.16 (−0.25, −0.06)"}, {"measurement": "Difference in amount of change (vibegron group − placebo group), least squares mean (95% confidence interval)", "setting": "[1]; 100 mg/day oral, patients whose frequency of urination at night is one or more times at baseline", "result": "−0.21 (−0.33, −0.09)"}, {"measurement": "Amount of change from baseline in the frequency of urination at night, least squares mean (95% confidence interval)", "setting": "[1]; 100 mg/day oral, patients whose frequency of urination at night is two or more times at baseline", "result": "−1.16 (−1.34. −0.99)"}, {"measurement": "Single voided volume at night compared with the placebo group", "setting": "[2]; [3]", "result": "significantly increased"}, {"measurement": "Frequency of urination at night compared with the placebo group", "setting": "[2]; [6]", "result": "significantly reduced"}, {"measurement": "Single voided volume at night compared with the placebo group", "setting": "[2]; [6]", "result": "significantly increased"}, {"measurement": "Amount of change from baseline in the frequency of urination at night, least squares mean (95% confidence interval)", "setting": "[2]; 50 mg/day oral, 12 weeks, patients whose frequency of urination at night is not zero at baseline", "result": "−0.58 (−0.65, −0.51)"}, {"measurement": "Amount of change from baseline in the frequency of urination at night, least squares mean (95% confidence interval)", "setting": "[2]; 50 mg/day oral, 12 weeks, patients whose frequency of urination at night is one or more times at baseline", "result": "−0.74 (−0.82, −0.65)"}, {"measurement": "Least squares mean of the amount of change from baseline in the first voided volume at night", "setting": "[2]; 50 mg/day, 12 weeks", "result": 48.71, "unit": "mL"}, {"measurement": "Least squares mean of the amount of change from baseline in the time to first awakening (HUS)", "setting": "[2]; 50 mg/day, 12 weeks", "result": 81.79, "unit": "min"}, {"measurement": "Least squares mean of the amount of change from baseline in the single voided volume at night", "setting": "[2]; 50 mg/day, 12 weeks", "result": "+47.85 mL"}, {"measurement": "Amount of change from baseline in the frequency of urination at night, least squares mean (95% confidence interval)", "setting": "[2]; 100 mg/day oral, 12 weeks, patients whose frequency of urination at night is one or more times at baseline", "result": "−0.78 (−0.87, −0.70)"}, {"measurement": "Difference in amount of change (vibegron group − placebo group), least squares mean (95% confidence interval)", "setting": "[2]; 100 mg/day oral, 12 weeks, patients whose frequency of urination at night is two or more times at baseline", "result": "−0.31 (−0.55, −0.08)"}, {"measurement": "Least squares mean of the amount of change from baseline in the first voided volume at night", "setting": "[2]; 100 mg/day, 12 weeks", "result": 71.42, "unit": "mL"}, {"measurement": "Least squares mean of the amount of change from baseline in the time to first awakening (HUS)", "setting": "[2]; 100 mg/day, 12 weeks", "result": 90.95, "unit": "min"}, {"measurement": "Least squares mean of the amount of change from baseline in the single voided volume at night", "setting": "[2]; 100 mg/day, 12 weeks", "result": "+58.14 mL"}]}
